The record followed here is paper PMC4914250, “Cancer therapeutic approach based on conformational stabilization of mutant p53 protein by small peptides” (Oncotarget, 2016).

One assay relates to mutp53. Kind of assay: Summary score of peptide functional screens. The conditions noted are these: overall score over conformation, DNA binding, viability and PCR screens.
In a further assay the test system is SK3. Kind of assay: Crystal violet viability assay, SK3. Format: cell-based, human. The conditions noted are these: score 0-6 compared to positive control, 48 h. The text has this:
(§1) We also performed a similar analysis on ES2 ovarian cancer cells, which express endogenous mp53^S241F, compared to ES2 cells in which p53 was stably knocked out using CRISPR/Cas9 (ES2 p53KO Figure S1F), to control for specificity for mutp53 (Figure 2D). In ES2 cells, too, some of the peptides caused a significant reduction in cell numbers, more prominent in the mutp53 expressing cells than in their p53KO counterparts. […] Overall, we performed this analysis on several different mutp53-expressing human cancer cell lines, and the results are summarized in Table S3. Based on this comprehensive picture, we reduced the number of most promising candidate lead peptides to 30. These peptides were then synthesized with an 8 arginine C-terminal tail for enhanced delivery across cell membranes (pCAPs 130-160); for clarity, peptides are referred to by their original number, with an R for poly arginine (see Table S3).
(§2) Cells were cultured in 96 wells plates with 2500-4000 cells/well. Serial dilutions of different peptides were added and the plates incubated for additional 48 h at 37°C. Then medium was removed and cell viability was determined by staining the cells with crystal violet (0.05%) in methanol/PBS (1:5, v/v), for 10 min, followed by 3 washes with PBS. 10% acetic acid was added to each well for 10 min. OD was determined at 595 nm.

For a further assay, the system named is HOP62. Kind of assay: Crystal violet viability assay, HOP62. Format: cell-based, human. The conditions noted are these: score 0-6 compared to positive control, 48 h.
Source text: as §1, §2

The test system of assay [1] is H1299 cells expressing mutp53^R175H. Kind of assay: Crystal violet viability assay, H1299. The conditions noted are these: score 0-6 compared to positive control, 48 h. The assay is classed as cell-based.
Description: Cell extracts were added to ELISA plates coated with the indicated antibodies to allow mutp53 to react with the peptides and antibodies. αp53-HRP Ab was used for assessment of p53 levels. Numbers represent ratio of absorbance between the PAb1620 and PAb240 samples. All reads were normalized to the control PAb241 reading of each extract. MCF7 (WTp53) and H1299-mutp53^A135V (tsp53) cells were used as positive controls for the WTp53 conformation (1620/240 ratio equals or exceeds 5:1). […] 96 well plates were coated with anti-p53 antibody, cell extracts containing p53 were reacted with oligonucleotides that contain a p53RE consensus binding site, labeled with biotin, in the presence or absence (NT) of test peptides. Streptavidin-HRP is used to quantify the amount of oligos in the well. TMB assay was performed to determine bound mutp53 levels (450nm). MCF7 and the H1299-mutp53^A135V(TS) cells serve as positive controls for WTp53. C.and D. - Bar graphs illustrating the effect of various selected peptides on mut-p53 dependent expression on cell viability. […] D, ES2 cells expressing endogenous mutp53 (blue bars) and ES2 cells knocked out for p53 by CRISPR construct (light blue bars). Cell lines were treated with selected peptides, Cis-platinum was used as positive control for cell death. 48 hours after treatment, cells were washed with PBS, and the remaining attached cells were stained with Crystal violet and washed 4 times with PBS. Stained cells were dissolved in 10% acetic acid and plates were taken for optical density measurement at 595nM.
This simple assay measures the total number of cells, thus reflecting the combination of both cell death and growth arrest effects. […] After 48 hours of treatment cells were stained with crystal violet and OD at 595nm was determined.
Values on the Y-axis reflect the number of cells in the treated wells, normalized to the non-treated samples (NT; red bars).
Assay [2] concerns mutp53 in BT549 cell extract. Kind of assay: ELISA of mutp53 conformation, BT549. The assay is classed as biochemical, human. Conditions: score 0-6 compared to positive control. The text has this: (§3) A total of close to 350 peptides, deduced from the phage sequences, were synthesized and subjected to several alternative complementary methods of semi high-throughput functional screening; we refer to these peptides as pCAPs (p53 conformation activating peptides). First, we used cell-free ELISA assays to evaluate the effect of individual peptides on mutp53 conformation and DNA binding in vitro. For conformation analysis (Figure 2A), microtiter plates were coated with PAb240, PAb1620 or PAb421 as control, then the effect of each peptide on reactivity of mutp53 with these antibodies was examined; WTp53 served as a positive control for PAb1620 reactivity.
(§4) 96-well plates were coated using 3 different anti p53 monoclonal antibodies, PAb421, PAb240 and PAb1620. Wells were incubated overnight (ON) with 100μl Ab (5μg/ml) in room temp (RT). The liquid was discarded, and the wells were washed 3 times with PBS, 200 μl. Next, blocking with 5% BSA in PBS for 2 hours (RT) was performed, followed by 3 washes in PBS. Samples of mutant and WT p53 proteins (100 μl, 10 μg/ml), together with control peptides or with test peptides 1-326 (5μg /ml), were incubated for 1.5 hours, and then added to the wells for1 hour at RT. 4 washes with PBST were performed. Next, HRP conjugated αp53 antibody (10μg/ml HAF1355 (R&D)) were added to the wells and incubated at RT for 1 hour. Plates were washed 3 times in PBST and TMB substrate solution (50μl each well, Thermo, (Cat. No. ES001-1L-K)) was added and incubated at 37°C for 20 min. The reaction was stopped with 2M Sulfuric acid (50μl). The absorbance was measured at 450 nm with a spectrophotometer. Protein concentration was determined by dividing the absorb an each sample to by the absorbance of PAb421 samples.
(ELISA stands for enzyme-linked immunosorbent assay.)

Assay [3] relates to mutp53 in SK3 cell extract. Kind of assay: ELISA of mutp53 conformation, SK3. Format: biochemical, human. The conditions noted are these: score 0-6 compared to positive control.
Source text: as §3, §4

A further assay concerns ES2 ovarian cancer cells. Kind of assay: Crystal violet viability assay, ES2. Format: cell-based, human. The conditions noted are these: score 0-6 compared to positive control, 48 h. The method, then: (§5) Cell extracts were added to ELISA plates coated with the indicated antibodies to allow mutp53 to react with the peptides and antibodies. αp53-HRP Ab was used for assessment of p53 levels. Numbers represent ratio of absorbance between the PAb1620 and PAb240 samples. All reads were normalized to the control […] reading of each extract. MCF7 (WTp53) and H1299-mutp53^A135V (tsp53) cells were used as positive controls for the WTp53 conformation (1620/240 ratio equals or exceeds 5:1). […] 96 well plates were coated with anti-p53 antibody, cell extracts containing p53 were reacted with oligonucleotides that contain a p53RE consensus binding site, labeled with biotin, in the presence or absence (NT) of test peptides. Streptavidin-HRP is used to quantify the amount of oligos in the well. TMB assay was performed to determine bound mutp53 levels (450nm). MCF7 and the H1299-mutp53^A135V(TS) cells serve as positive controls for WTp53. C.and D. - Bar graphs illustrating the effect of various selected peptides on mut-p53 dependent expression on cell viability. […] D, ES2 cells expressing endogenous mutp53 (blue bars) and ES2 cells knocked out for p53 by CRISPR construct (light blue bars). Cell lines were treated with selected peptides, Cis-platinum was used as positive control for cell death. 48 hours after treatment, cells were washed with PBS, and the remaining attached cells were stained with Crystal violet and washed 4 times with PBS. Stained cells were dissolved in 10% acetic acid and plates were taken for optical density measurement at […]. TEXT PRINTED IN THE PICTURE: (A) pCAP1: 0.87 | (A) pCAP2: 0.53 | (A) pCAP3: 0.59 | (A) pCAP4: 0.59 | (A) pCAP5: 0.60 | (A) pCAP6: 0.75 | (A) pCAP23: 1.06 | (A) pCAP24: 1.44 | (A) pCAP36: 1.25 | (A) pCAP47: 1.54 | (A) pCAP54: 1.54 | (A) pCAP60: 2.73 | (A) pCAP68: 2.22 | (A) pCAP83: 1.56 | (A) pCAP97: 2.45 DOUBTS OF THE COPYIST ABOUT THIS PICTURE: Panel A: the numbers over the bars are printed very small, rotated and blurred, so 3, 5, 6, 8 and 9 cannot be told apart with certainty. All values are best readings: pCAP1 0.87, pCAP2 0.53, pCAP3 0.59, pCAP4 0.59, pCAP5 0.60, pCAP6 0.75, pCAP23 1.06, pCAP24 1.44, pCAP36 1.25, pCAP47 1.54, pCAP54 1.54, pCAP60 2.73, pCAP68 2.22, pCAP83 1.56, pCAP97 2.45 / Panel A: the picture prints no measure with the numbers over the bars, so they are given as bare numbers / Panel A: numbers are also printed over the controls, which are not substances and are left out of lines. Best readings: NT 0.60, 60° 30'' 0.48, 60° 1' 0.37, 60° 3' 0.13, 60° 10' 0.05, MCF7 3.32, H1299TS 3.25
as §1, §2

Assay [4] has as its system mutp53 in SK3 cell extract. Kind of assay: ELISA of mutp53 DNA binding (p53RE oligonucleotide), SK3. Conditions: score 0-6 compared to positive control. The assay is classed as biochemical, human. The method, then: (§6) Next, we assessed the ability of our selected peptides to restore sequence-specific DNA binding to mutp53. To that end we employed an ELISA kit (R&D) in which cell extracts containing p53 are reacted with a biotinylated p53RE oligonucleotide and then incubated in wells coated with anti-p53 antibody, which is expected to trap the p53 protein and its associated p53RE DNA. The amount of p53RE retained in each well via p53 binding is quantified by incubation with streptavidin-HRP. […] Again, extracts of MCF7 and H1299-tsp53^A135V cells served as positive controls for WTp53 DNA binding activity. […] Importantly, there was substantial overlap between the peptides that stabilized the WT conformation (Figure 2A) and those that increased specific DNA binding (Figure 2B), further reinforcing the conclusion that those peptides stabilize mutp53 in a functional state. This was not seen with the randomly selected peptides 1-6 (black bars).
For these experiments, a commercial p53/DNA binding kit of “R&D” (Cat-DYC1355-5 Lot-1273366FA) was used, in accordance with manufacturer guide lines. Briefly, 96 well plates we coated with anti-p53 antibody overnight. Cell extracts containing p53 are reacted with an oligonucleotide that contains a p53 consensus binding site (provided in the kit), labeled with Biotin, in the presence or absence (NT) of test peptides. WT p53 is expected to bind this DNA binding site as well as to the antibody coating the test wells of the plate. Excess p53 and oligos were washed away and streptavidin-HRP was used to quantify the amount of oligos in the well, which is proportional to the DNA bound by p53. TMB assay was performed to determine HRP (ES001-1L-K) levels (450nm).

Assay [5] relates to mutp53^R175H. Kind of assay: ELISA of mutp53 DNA binding (p53RE oligonucleotide), H1299-p53^R175H cell extract. Format: biochemical, human. The conditions noted are these: score 0-6 compared to positive control; mutp53 DNA binding. The method, then:
as §5, §6
For these experiments, a commercial p53/DNA binding kit of “R&D” (Cat-DYC1355-5 Lot-1273366FA) was used, in accordance with manufacturer guide lines. Briefly, 96 well plates we coated with anti-p53 antibody overnight. Cell extracts containing p53 are reacted with an oligonucleotide that contains a p53 consensus binding site (provided in the kit), labeled with Biotin, in the presence or absence (NT) of test peptides. […]

Assay [6] relates to mutp53^R175H. Kind of assay: ELISA of mutp53 conformation (PAb1620/PAb240), H1299-p53^R175H cell extract. Format: biochemical, human. Conditions: score 0-6 compared to positive control; mutp53 conformation.
Source text: as §3, §5
Extracts were prepared at a concentration of 750ng/μl and then reacted for 2 hours with different peptides. Plates coated with the different antibodies were then washed and blocked, and extracts pre-incubated either with or without peptides were added for two additional hours. After removal of extracts, plates were washed and incubated with HRP-conjugated anti-p53 antibody. Finally, HRP activity was quantified by optical density at 450nm. MCF7 cells (expressing WTp53) and H1299-tsp53^A135V cells, stably expressing a temperature sensitive p53 mutant that has mutant conformation at 37°C but WT conformation at 32°C [31], were used as positive controls for the WTp53 conformation (1620/240 ratio 5:1). […]

The test system of another assay is EP156. Kind of assay: Crystal violet viability assay, EP156. The assay is classed as cell-based. Conditions: score 0-6 compared to positive control, 48 h.
Source text: as §1, §2

A further assay relates to WI38. Kind of assay: Crystal violet viability assay, WI38. The assay is classed as cell-based. The conditions noted are these: score 0-6 compared to positive control, 48 h. The method, then: as §2

“DEDAKFRIRILMRR [pCAP-202, peptide with similarity to APAF1]” yielded an SCORE in the assay on mutp53 of 13. Moreover, the “Viability SK3” value with SK3 was 3. For the same substance, the “Viability HOP62” value in the assay on HOP62 came out at 2. Moreover, the “Viability H1299” value in assay [1] is listed as 3. Besides, the “Conform BT549” value in assay [2] stood at 3. Further, the “Conform SK3” value in [3] is given as 2.
In the assay on mutp53, “EHDFEVRGDVVNGRNHQPK [pCAP-4, randomly selected peptide used as inert comparison]” had an SCORE of 2. The “Viability ES2” value with ES2 ovarian cancer cells is listed as 2.
On to FPGHTIH [pCAP-100], for which the “DNA SK3” value in [4] worked out at 3. Moreover, the SCORE with mutp53 was found to be 19. Also, in the assay with mutp53^R175H [5], the “DNA H1299” value is recorded as 3. The “Viability H1299” value in [1] came to 3. In [2], the “Conform BT549” value came to 1. Further, the “Conform SK3” value in [3] was found to be 3.
Substance “FWTQSIKERKMLNEHDFER [pCAP-3, randomly selected peptide used as inert comparison]” yielded an SCORE in the assay on mutp53 of 4. Moreover, the “Viability HOP62” value with HOP62 was found to be 2. In addition, the “Viability H1299” value in [1] is 1.
In the assay with mutp53, “LEVIYMI [pCAP-5, randomly selected peptide used as inert comparison]” yielded an SCORE of 2.
On to “LGIDEDEETETAPE [pCAP-6, randomly selected peptide used as inert comparison]”, for which the SCORE in the assay with mutp53 was 4. Further, the “Viability HOP62” value in the assay on HOP62 worked out at 2.
LPNPPERHH [pCAP-16]: the “DNA SK3” value in [4] was 3. The same substance had an SCORE in the assay with mutp53 of 22. In the assay on HOP62, the “Viability HOP62” value is on record as 3. The “DNA H1299” value with mutp53^R175H [5] is 3. Moreover, in the assay on mutp53^R175H [6], the “Conform H1299” value came to 2. The “Viability H1299” value in assay [1] was found to be 3. The “Viability EP156” value in the assay on EP156 turned out to be 4.
As for “SPLQTPAAPGAAAGPALSPV [pCAP-7, synthesized peptide of the functional screen]”, the SCORE in the assay on mutp53 is listed as 3. In addition, in the assay on WI38, the “Viability WI38” value is on record as 2. In addition, in the assay with mutp53^R175H [5], the “DNA H1299” value is given as 1.
With “VWVHDSCHANLQNYRNYLP [pCAP-2, randomly selected peptide used as inert comparison]”, in the assay on mutp53, the SCORE worked out at 2.
With “myr-HSSHHHPTVQHRR [pCAP-257, myristoylated peptide, similarity to SIN3A]”, the SCORE in the assay with mutp53 is given as 16. The “Viability SK3” value with SK3 is 3. In addition, the “Viability HOP62” value in the assay on HOP62 was determined as 3. Moreover, the “DNA H1299” value in the assay with mutp53^R175H [5] came to 3. Besides, the “Viability EP156” value in the assay on EP156 was determined as 4. Also, the “Conform BT549” value in assay [2] is on record as 3.
